Data published in US5260298A, “Imidazatriazoloquinazoline compounds and their use” (Novo Nordisk A/S, priority 1991, dated 1993).

Tested on: benzodiazepine receptors
Test: in vivo displacement of 3H-flunitrazepam binding from benzodiazepine receptors in a living brain
Conditions: dose which reduces specific binding of 3H-flunitrazepam to benzodiazepine receptors in a living brain to 50% of the control value
Description: The pharmaceutical properties of the compounds of the invention can be illustrated by determining their capability for displacing radioactive labelled flunitrazepam from benzodiazepine receptors.
The displacement activity of the compounds of the invention may be found by determining the ED50 value. The ED50 value represents the dose (mg/kg) of a test substance which causes the specific binding of ^3 H-flunitrazepam to benzodiazepine receptors in a living brain to be reduced to 50% of the control value.
Such an in vivo test is carried out as described in U.S. Pat. No. 4,774,245.

c1ccc2c(c1)c1ncnn1c1c(-c3nc(C4CC4)no3)ncn21 [Compound 3, 5-(3-cyclopropyl-1,2,4-oxadiazol-5-yl)-imidazo[1,5-a]-[1,2,4]triazolo[1,5-c]quinazoline]
ED50: 0.16 mg/kg

Clc1cccc2c1c1ncnn1c1c(-c3nc(C4CC4)no3)ncn21 [Compound 5, 12-chloro-5-(3-cyclopropyl-1,2,4-oxadiazol-5-yl)-imidazo[1,5-a][1,2,4]triazolo[1,5-c]quinazoline]
ED50: 0.30 mg/kg
